Data taken from patent publication USRE38117E1, “Trioxane dimer compound having antiproliferative and antitumor activities” (Hauser, Inc., priority 1995, dated 2003).
Like-named read-outs stand apart in the source and are kept apart here.

How the values were obtained:
Assay type in all cases: cell-based
[1] = tested on: IGROVI; assay: NCI 60 cell line screen (SRB), Ovarian Cancer
[2] = tested on: HL-60(TB); assay: NCI 60 cell line screen (SRB), Leukemia
[3] = tested on: NCI-H23; assay: NCI 60 cell line screen (SRB), Non-Small Cell Lung Cancer
[4] = tested on: K-562; assay: NCI 60 cell line screen (SRB), Leukemia; conditions: K-562 (Leukemia)
[5] = tested on: ACHN; assay: NCI 60 cell line screen (SRB), Renal Cancer
[6] = tested on: MDA-N; assay: NCI 60 cell line screen (SRB), Breast Cancer
[7] = tested on: NCI-H522; assay: NCI 60 cell line screen (SRB), Non-Small Cell Lung Cancer
[8] = tested on: SW-620; assay: NCI 60 cell line screen (SRB), Colon Cancer; conditions: SW-620 (Colon Cancer)
[9] = tested on: SK-MEL-28; assay: NCI 60 cell line screen (SRB), Melanoma; conditions: SK-MEL-28 (Melanoma)
[10] = tested on: SF-268; assay: NCI 60 cell line screen (SRB), CNS Cancer; conditions: SF-268 (CNS Cancer)
[11] = tested on: KM12; assay: NCI 60 cell line screen (SRB), Colon Cancer
[12] = tested on: HCT-15; assay: NCI 60 cell line screen (SRB), Colon Cancer; conditions: HCT-15 (Colon Cancer)
[13] = tested on: LOX IMVI; assay: NCI 60 cell line screen (SRB), Melanoma
[14] = tested on: CCRF-CEM; assay: NCI 60 cell line screen (SRB), Leukemia
[15] = tested on: MDA-MB-435; assay: NCI 60 cell line screen (SRB), Breast Cancer; conditions: MDA-MB-435 (Breast Cancer)
[16] = tested on: OVCAR-4; assay: NCI 60 cell line screen (SRB), Ovarian Cancer; conditions: OVCAR-4 (Ovarian Cancer)
[17] = tested on: murine keratinocyte cell line PE; assay: Growth inhibition of PE cells (MTT assay); conditions: murine keratinocytes, FIGS. 1-9
Protocol: To determine the inhibitory effect of the trioxane dimers of the present invention on cell proliferation, screening assays were performed on a murine keratinocyte cell line PE. […] PE cell culture medium consisted of Eagle's minimal essential medium without calcium chloride (Whittaker Bioproducts, Walkersville, Ma.) supplemented with 8% chelexed fetal calf serum and 1% antibiotic-antimycotic (Gibco BRL) and the addition of CaCl2 to 0.05 mM Ca^++. […] (St. Louis, Mo.), and TPA was supplied by L. C. Services (Woburn, Ma.). L-[^14C]ornithine ([…]) was from Amersham/Searle Corp. (Arlington Heights, Ill.). Chemical solvents used in all assays of biological activity were of the highest grade commercially available. Growth Inhibition. […] A mitochondrial dehydrogenase reduces MTT to a blue formazan product with an absorbance maximum of 505 nm in DMSO; the number of viable cells can thus be determined spectrophotometrically. PE cells were seeded at a density of 5,000 cells/well in 50 μL of medium into 96-well microtiter plates. […] The plates were fed once at 48 h, with the readdition of the vitamin D3 analogs at this time. […] After 4 h, the MTT was removed and DMSO added to dissolve the blue formazan dye. Using a microtiter plate reader, the […] was then determined and cell number calculated from blank-subtracted absorbance values.

[18] = tested on: A498; assay: NCI 60 cell line screen (SRB), Renal Cancer
[19] = tested on: PC-3; assay: NCI 60 cell line screen (SRB), Prostate Cancer; conditions: PC-3 (Prostate Cancer)
[20] = tested on: CAKI-1; assay: NCI 60 cell line screen (SRB), Renal Cancer; conditions: CAKI-1 (Renal Cancer)
[21] = tested on: TK-10; assay: NCI 60 cell line screen (SRB), Renal Cancer; conditions: TK-10 (Renal Cancer)
[22] = tested on: SK-OV-3; assay: NCI 60 cell line screen (SRB), Ovarian Cancer; conditions: SK-OV-3 (Ovarian Cancer)
[23] = tested on: HOP-62; assay: NCI 60 cell line screen (SRB), Non-Small Cell Lung Cancer; conditions: HOP-62 (Non-Small Cell Lung Cancer)
[24] = tested on: SN12C; assay: NCI 60 cell line screen (SRB), Renal Cancer
[25] = tested on: HT29; assay: NCI 60 cell line screen (SRB), Colon Cancer
[26] = tested on: UACC-257; assay: NCI 60 cell line screen (SRB), Melanoma; conditions: UACC-257 (Melanoma)
[27] = tested on: RXF 393; assay: NCI 60 cell line screen (SRB), Renal Cancer; conditions: RXF 393 (Renal Cancer)

SMILES: COC1OC2(C)CCC3CCCC(CCOCCC4CCCC5CCC6(C)OOC45C(OC)O6)C31OO2 (stereo not drawn) [Compound 6, Trioxane Ether Dimer]
- Log10GI50 [1]: −5.37 M
- Log10LC50 [1]: >−4.00 M
- Log10TGI [1]: −4.13 M
- Log10GI50 [2]: −6.48 M
- Log10LC50 [2]: >−4.00 M
- Log10TGI [2]: −5.77 M
- Log10GI50 [3]: −6.34 M
- Log10LC50 [3]: >−4.00 M
- Log10TGI [3]: >−4.00 M
- Log10GI50 [4]: −6.75 M
- Log10LC50 [4]: >−4.00 M
- Log10TGI [4]: >−4.00 M
- Log10GI50 [5]: −5.99 M
- Log10LC50 [5]: >−4.00 M
- Log10TGI [5]: >−4.00 M
- Log10GI50 [6]: −6.19 M
- Log10LC50 [6]: >−4.00 M
- Log10TGI [6]: >−4.00 M
- Log10GI50 [7]: −6.13 M
- Log10LC50 [7]: >−4.00 M
- Log10TGI [7]: −4.76 M
- Log10GI50 [8]: −6.66 M
- Log10LC50 [8]: >−4.00 M
- Log10TGI [8]: >−4.00 M
- Log10GI50 [9]: −4.24 M
- Log10LC50 [9]: >−4.00 M
- Log10TGI [9]: >−4.00 M
- Log10GI50 [10]: −5.07 M
- Log10LC50 [10]: >−4.00 M
- Log10TGI [10]: >−4.00 M
- Log10GI50 [11]: −6.85 M
- Log10LC50 [11]: >−4.00 M
- Log10TGI [11]: −4.28 M
- Log10GI50 [12]: −7.28 M
- Log10LC50 [12]: >−4.00 M
- Log10TGI [12]: >−4.00 M
- Log10GI50 [13]: −6.52 M
- Log10LC50 [13]: −4.33 M
- Log10TGI [13]: −4.83 M
- Log10GI50 [14]: −6.27 M
- Log10LC50 [14]: >−4.00 M
- Log10TGI [14]: −4.61 M
- Log10GI50 [15]: −6.38 M
- Log10LC50 [15]: >−4.00 M
- Log10TGI [15]: >−4.00 M
- Log10GI50 [16]: −5.11 M
- Log10LC50 [16]: >−4.00 M
- Log10TGI [16]: >−4.00 M
- antiproliferative activity [17]: the most antiproliferative
- Log10GI50 [18]: >−4.00 M
- Log10LC50 [18]: >−4.00 M
- Log10TGI [18]: >−4.00 M
- Log10GI50 [19]: −7.85 M
- Log10LC50 [19]: −4.00 M
- Log10TGI [19]: −4.75 M
- Log10GI50 [20]: −5.44 M
- Log10LC50 [20]: >−4.00 M
- Log10TGI [20]: >−4.00 M
- Log10GI50 [21]: −5.60 M
- Log10LC50 [21]: >−4.00 M
- Log10TGI [21]: −4.88 M
- Log10LC50 [22]: >−4.00 M
- Log10TGI [22]: >−4.00 M
- Log10GI50 [23]: −4.92 M
- Log10LC50 [23]: >−4.00 M
- Log10TGI [23]: >−4.00 M
- Log10GI50 [24]: −5.46 M
- Log10LC50 [24]: >−4.00 M
- Log10TGI [24]: >−4.00 M
- Log10GI50 [25]: −6.24 M
- Log10LC50 [25]: >−4.00 M
- Log10TGI [25]: >−4.00 M
- Log10GI50 [26]: −5.68 M
- Log10LC50 [26]: >−4.00 M
- Log10TGI [26]: >−4.00 M

SMILES: C[C@@H]1CC[C@H]2[C@@H](C)C(=O)O[C@@H]3O[C@@]4(C)CC[C@@H]1[C@]32OO4 [QHS, 3,6,9-trimethyl-9,10b-epidioxyperhydropyrano[4,3,2-jk]benzoxepin-2-one, reference compound]
- Log10GI50 [1]: −4.31 M
- Log10LC50 [1]: >−4.00 M
- Log10TGI [1]: >−4.00 M
- Log10GI50 ([2]; HL-60(TB) (Leukemia)): −4.26 M
- Log10LC50 ([2]; HL-60(TB) (Leukemia)): >−4.00 M
- Log10TGI ([2]; HL-60(TB) (Leukemia)): −4.00 M
- Log10GI50 [3]: >−4.00 M
- Log10LC50 [3]: >−4.00 M
- Log10TGI [3]: >−4.00 M
- Log10GI50 [4]: −4.33 M
- Log10LC50 [4]: >−4.00 M
- Log10TGI [4]: −4.00 M
- Log10GI50 [5]: >−4.00 M
- Log10LC50 [5]: >−4.00 M
- Log10TGI [5]: >−4.00 M
- Log10GI50 [6]: >−4.00 M
- Log10LC50 [6]: >−4.00 M
- Log10TGI [6]: >−4.00 M
- Log10GI50 [8]: >−4.00 M
- Log10LC50 [8]: >−4.00 M
- Log10TGI [8]: >−4.00 M
- Log10GI50 [9]: >−4.00 M
- Log10LC50 [9]: >−4.00 M
- Log10TGI [9]: >−4.00 M
- Log10GI50 [11]: >−4.00 M
- Log10LC50 [11]: >−4.00 M
- Log10TGI [11]: >−4.00 M
- Log10GI50 [12]: >−4.00 M
- Log10LC50 [12]: >−4.00 M
- Log10TGI [12]: >−4.00 M
- Log10GI50 [18]: >−4.00 M
- Log10LC50 [18]: >−4.00 M
- Log10TGI [18]: >−4.00 M
- Log10GI50 [19]: −4.17 M
- Log10LC50 [19]: >−4.00 M
- Log10TGI [19]: >−4.00 M
- Log10GI50 [21]: >−4.00 M
- Log10LC50 [21]: >−4.00 M
- Log10TGI [21]: >−4.00 M
- Log10GI50 [23]: >−4.00 M
- Log10LC50 [23]: >−4.00 M
- Log10TGI [23]: >−4.00 M
- Log10GI50 [24]: −4.21 M
- Log10LC50 [24]: >−4.00 M
- Log10TGI [24]: >−4.00 M
- Log10GI50 [25]: >−4.00 M
- Log10LC50 [25]: >−4.00 M
- Log10TGI [25]: >−4.00 M
- Log10GI50 [27]: −4.08 M
- Log10LC50 [27]: >−4.00 M
- Log10TGI [27]: >−4.00 M
- Log10GI50 [26]: >−4.00 M
- Log10LC50 [26]: >−4.00 M
- Log10TGI [26]: >−4.00 M
